# Source: ChEMBL document CHEMBL4428067, “Drug Discovery against Psoriasis: Identification of a New Potent FMS-like Tyrosine Kinase 3 (FLT3) Inhibitor, 1-(4-((1H-Pyrazolo[3,4-d]pyrimidin-4-yl)oxy)-3-fluorophenyl)-3-(5-(tert-butyl)isoxazol-3-yl)urea, That Showed Potent Activity in a Psoriatic Animal Model” (J Med Chem, 2016)
# Target: T1, Receptor-type tyrosine-protein kinase FLT3 (Homo sapiens, UniProt P36888)
# T1 sequence (P36888 whole entry): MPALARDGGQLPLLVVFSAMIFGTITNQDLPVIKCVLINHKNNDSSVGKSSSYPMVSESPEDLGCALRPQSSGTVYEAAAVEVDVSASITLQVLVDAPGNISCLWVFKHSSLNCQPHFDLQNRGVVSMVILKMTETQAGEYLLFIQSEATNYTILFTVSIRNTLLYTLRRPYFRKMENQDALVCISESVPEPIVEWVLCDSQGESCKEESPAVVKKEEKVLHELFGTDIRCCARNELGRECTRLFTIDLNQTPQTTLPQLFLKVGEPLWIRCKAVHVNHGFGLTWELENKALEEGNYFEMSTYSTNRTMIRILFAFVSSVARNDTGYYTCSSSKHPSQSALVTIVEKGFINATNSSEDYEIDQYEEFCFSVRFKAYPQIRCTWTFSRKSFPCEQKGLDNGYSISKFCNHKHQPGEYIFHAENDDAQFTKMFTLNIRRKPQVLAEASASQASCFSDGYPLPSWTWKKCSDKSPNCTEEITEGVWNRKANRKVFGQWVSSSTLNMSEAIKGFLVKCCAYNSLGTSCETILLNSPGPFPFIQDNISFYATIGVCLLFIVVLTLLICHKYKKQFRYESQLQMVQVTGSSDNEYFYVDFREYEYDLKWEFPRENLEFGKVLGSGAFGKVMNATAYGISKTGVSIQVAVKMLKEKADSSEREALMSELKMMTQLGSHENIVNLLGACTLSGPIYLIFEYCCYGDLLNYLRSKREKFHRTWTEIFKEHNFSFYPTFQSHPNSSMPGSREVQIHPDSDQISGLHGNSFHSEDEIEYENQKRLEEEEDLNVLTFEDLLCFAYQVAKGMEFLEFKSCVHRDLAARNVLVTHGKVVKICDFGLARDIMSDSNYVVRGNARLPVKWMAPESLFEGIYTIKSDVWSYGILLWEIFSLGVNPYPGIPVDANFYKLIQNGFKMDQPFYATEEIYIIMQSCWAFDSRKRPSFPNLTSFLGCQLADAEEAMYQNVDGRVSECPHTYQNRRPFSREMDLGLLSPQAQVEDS
# Experiment: Inhibition of recombinant human N-terminal GST-tagged FLT3 (564 to end residues) expressed by baculovirus in Sf21 insect cells measured after 10 mins in presence of [gamma-33P]ATP by scintillation counter method
row,SMILES,IC50 [nM]
1,CC(C)(C)c1cc(NC(=O)Nc2ccc(Oc3ncnc4[nH]ncc34)cc2F)no1,6
2,CC(C)(C)c1cc(NC(=O)Nc2ccc(Oc3ncnc4[nH]ncc34)cc2)n(-c2ccccc2)n1,50
3,Cc1cc(Oc2ncnc3[nH]ncc23)ccc1NC(=O)Nc1cc(C(C)(C)C)on1,657
4,Cn1ncc2c(Oc3ccc(NC(=O)Nc4cc(C(C)(C)C)on4)cc3)ncnc21,27
5,Cn1nc(C(F)(F)F)cc1NC(=O)Nc1ccc(Oc2ncnc3[nH]ncc23)cc1,38
6,CC(C)c1cc(NC(=O)Nc2ccc(Oc3ncnc4[nH]ncc34)cc2)n(C)n1,82
7,CC(C)(C)c1cc(NC(=O)Nc2ccc(Oc3ncnc4[nH]ncc34)c(F)c2)n(-c2ccc(F)cc2)n1,42
8,CC(C)(C)c1cc(NC(=O)Nc2ccc(Oc3ncnc4[nH]ncc34)cc2)on1,8
9,CC(C)(C)c1cc(NC(=O)Nc2ccc(Oc3ncnc4[nH]ncc34)cc2)no1,11
10,CC(C)(C)c1cc(NC(=O)Nc2ccc(Oc3ncnc4[nH]ncc34)c(Cl)c2)no1,2
11,CC(C)(C)c1cc(NC(=O)Nc2ccc(Oc3ncnc4[nH]ncc34)c(F)c2)n(-c2ccccc2)n1,56
12,CC(C)(C)c1cc(NC(=O)Nc2ccc(Oc3ncnc4[nH]ncc34)c(F)c2)n(C2CCCC2)n1,53
13,CC(C)(C)c1csc(NC(=O)Nc2ccc(Oc3ncnc4[nH]ncc34)cc2)n1,8
14,CC(C)(C)c1cc(NC(=O)Nc2ccc(Oc3ncnc4[nH]ncc34)cc2)n(C2CCCC2)n1,52
15,CN(C)CCCn1ncc2c(Oc3ccc(NC(=O)Nc4cc(C(C)(C)C)on4)cc3)ncnc21,80
16,Cc1cc(NC(=O)Nc2cc(C(C)(C)C)on2)ccc1Oc1ncnc2[nH]ncc12,6
17,O=C(Nc1ccc(Oc2ncnc3[nH]ncc23)cc1)Nc1nc2ccccc2s1,294
18,CC(C)(C)c1cc(NC(=O)Nc2ccc(Oc3ncnc4c3cnn4CCN3CCOCC3)cc2)no1,449
19,O=C(Nc1ccc(Oc2ncnc3[nH]ncc23)cc1)Nc1cc(C(F)(F)F)on1,28
20,Cn1nc(C(C)(C)C)cc1NC(=O)Nc1ccc(Oc2ncnc3[nH]ncc23)c(F)c1,66
21,CC(C)n1ncc2c(Oc3ccc(NC(=O)Nc4cc(C(C)(C)C)on4)cc3)ncnc21,217
22,Cn1nc(C(C)(C)C)cc1NC(=O)Nc1ccc(Oc2ncnc3[nH]ncc23)cc1,62
23,O=C(Nc1ccc(Oc2ncnc3[nH]ncc23)cc1)Nc1nc(-c2ccccc2)cs1,73
24,Cn1nc(C(F)(F)F)cc1NC(=O)Nc1ccc(Oc2ncnc3[nH]ncc23)c(F)c1,36
25,CC(C)(C)c1cc(NC(=O)Nc2ccc(Oc3ncnc4[nH]ncc34)cc2)n(C(=O)O)n1,10
